Laboratory results published in patent US20080153792A1, “Drug Identification and Treatment Method” (priority 2006, published 2008).

Experiments:
[1] = system: C57/BL6 mice, LPS-induced acute lung inflammation; assay: LPS-induced lung injury, BAL and lung MPO, Example 11; format: in vivo, mouse; details: 40 mg/Kg orally; 48 h after LPS
[2] = system: 8 week old db/db diabetic mice; assay: hyperinsulinemic-euglycemic clamp in db/db mice; format: in vivo, mouse
Description: Glucose lowering in 8 week old db/db diabetic mice. The hyperinsulinemic-euglycemic clamp protocol was conducted to measure insulin sensitivity in vivo. In this procedure, insulin was administered to raise the insulin concentration while glucose was infused to maintain euglycemia or a fixed, normal blood glucose level (about 180 mg/dL). […] The objective of this protocol was to investigate characterize the capacity of 17α-ethynylandrost-5-ene-3β,7β,17β-triol and androst-5-ene-3β,7β,16α,17β-tetrol to ameliorate systemic insulin resistance and improve whole body glucose disposal in the hyperinsulinemic-euglycemic clamp model. The degree of skeletal muscle and hepatic insulin sensitivity and tissue specific glucose uptake were also assessed. The animals were dosed daily by oral gavage for 14 days. On Day 10 of treatment catheters were implanted in the carotid artery and jugular vein. On the day of the clamp (day 14) the compound was administered at 7:30 am.
Body weight and glucose concentration were assessed on day 0, 7 and day 14 of treatment. On day 14 a euglycemic hyperinsulinemic clamp was performed. […] Plasma ^14C 2-deoxyglucose was assessed at 122, 125, 130, 135, 145 min. […]
Analysis was conducted as follows. Plasma samples were deproteinized with Ba(OH)2 (0.3 N) and ZnSO4 (0.3 N), dried and radioactivity was assessed on scintillation counter (Packard TRICARB 2900 TR, Meriden, Conn.). […] One supernatant was directly counted to determine radioactivity from both [14C] […] A second aliquot was treated with Ba(OH)2 and ZnSO4 to remove ^14C DGP and any tracer incorporated into glycogen and then counted to determine radioactivity from free [^14C]DG(2). [^14C]DGP was calculated as the difference between the two aliquots. […] Rg, an index of tissue specific glucose uptake was calculated as previously described (E. W. Kraegen et al., Am. J. Physiol., 248:E353-E362, 1985). Whole body glucose turnover was calculated as the ratio of the ^3H glucose infusion rate (dpm/kg/min) and arterial plasma glucose specific activity (dpm/mg). […]

female SJL mice, EAE = assay: experimental autoimmune encephalomyelitis (EAE), PLP-induced, Example 23; format: in vivo, mouse; details: 0.1 mg q.d. po from clinical onset
MG-63 cells = assay: reversal of glucocorticoid effects in MG-63 osteosarcoma cells; format: cell-based, human; details: 0.1 μM compound
androgen receptor = androgen receptor (Homo sapiens, UniProt P10275); assay: interaction with androgen receptor
Sequence of androgen receptor (P10275 whole entry, species assumed): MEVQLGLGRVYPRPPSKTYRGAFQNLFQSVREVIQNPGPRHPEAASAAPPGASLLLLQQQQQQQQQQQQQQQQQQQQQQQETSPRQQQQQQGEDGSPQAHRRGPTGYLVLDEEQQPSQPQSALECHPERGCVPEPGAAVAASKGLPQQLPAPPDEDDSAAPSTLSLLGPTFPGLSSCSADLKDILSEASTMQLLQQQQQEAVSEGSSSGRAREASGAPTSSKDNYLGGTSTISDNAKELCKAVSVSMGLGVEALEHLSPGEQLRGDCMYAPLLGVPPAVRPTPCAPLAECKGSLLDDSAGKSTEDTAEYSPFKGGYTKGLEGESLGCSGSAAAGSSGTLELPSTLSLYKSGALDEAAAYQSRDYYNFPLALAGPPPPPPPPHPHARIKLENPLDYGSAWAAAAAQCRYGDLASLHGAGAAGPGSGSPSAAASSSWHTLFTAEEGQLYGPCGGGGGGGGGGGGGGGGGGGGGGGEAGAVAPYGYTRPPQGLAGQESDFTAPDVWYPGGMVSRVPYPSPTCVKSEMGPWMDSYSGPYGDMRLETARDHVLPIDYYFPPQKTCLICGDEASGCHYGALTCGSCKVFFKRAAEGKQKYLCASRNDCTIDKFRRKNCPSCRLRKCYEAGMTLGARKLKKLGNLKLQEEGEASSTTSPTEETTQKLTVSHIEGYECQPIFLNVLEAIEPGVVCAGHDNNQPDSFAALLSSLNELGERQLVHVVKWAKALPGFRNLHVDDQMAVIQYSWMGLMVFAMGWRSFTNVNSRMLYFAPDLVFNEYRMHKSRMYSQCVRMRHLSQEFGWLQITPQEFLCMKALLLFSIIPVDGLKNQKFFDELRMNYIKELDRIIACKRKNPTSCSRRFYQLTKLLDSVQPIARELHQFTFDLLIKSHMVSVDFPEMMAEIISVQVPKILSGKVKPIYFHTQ

[3] = system: estrogen receptor-s or estrogen receptor-s; assay: interaction with estrogen receptors
[4] = metabolic stability in liver microsomes: human
Description: (§1) The protocol was performed as follows. […] (2) Set up samples as follows. […] (4) The internal standard/acetonitrile solution.

[5] = metabolic stability in liver microsomes: mouse; details: 10 min
Description: as §1

CaCo-2 cell monolayer = assay: drug absorption with CaCo-2 cells; format: in vitro ADME, human
Description: Measurement of drug absorption with CaCo-2 cells. This protocol was used to measure the influx of compounds across a CaCo-2 cell monolayer. […] This cell line is used to study the rate at which various compounds cross the cell monolayer. […] This can provide information about a compound's potential to be orally bioavailable.
In this protocol, the cells were maintained in medium at 37° C., using 100 μL per well of warm medium in a sterile 50 ml tube. The cells were grown on sterile 24-well plates with 600 μL of differentiation medium per well. The wells contained a transwell insert to allow two compartments per well. […]
After differentiation medium reached room temperature, about 20 mL was poured into a small beaker. […] Each well was measured by the probe by inserting the probe into the well without touching the cell monolayer; press the TEST button when the probe is close to the medium surface and the reading will go from 0000 to a number when the probe touches the surface; a reading >1000Ω was acceptable. […]
20 μL of the 3α,7β,16α,17β-tetrahydroxyandrost-5-ene internal standard was added to each tube and 1500 μL of methyl-t-butyl ether was added to each tube. […] The methyl-t-butyl ether was then evaporated under nitrogen and reconstituted in 120 μL acetonitrile/water (35:65) and analyzed by LCMS.

[6] = other protocols: degree of sulfation and glucuronidation
11β-HSD1 mRNA = assay: liver mRNA by RT-PCR in rats fed compound in chow: 11β-HSD1; format: in vivo, rat; details: 0.45% wt/wt in chow for 6 days; control 100%
Excerpt: (§2) Rats were fed ad libum with a standard laboratory chow that contained 0.45% wt/wt of androst-5-ene-3β,7β,17β-triol for 6 days, followed by analysis of liver tissue on day 6 for levels of phosphoenolpyruvate carboxykinase (“PEPCK”) and 11β-hydroxysteroid dehydrogenase (“11β-HSD”) in the liver. Control animals were fed normal chow and livers were examined on day 6 for PEPCK and 11β-HSD levels by measurement of messenger RNAs (mRNAs) by RT-PCR. Both control and treated animals had free access to water. […] Levels of PPARα mRNA in these animals were not affected by feeding with androst-5-ene-3β,7β,17β-triol.

PEPCK mRNA = assay: liver mRNA by RT-PCR in rats fed compound in chow: PEPCK; format: in vivo, rat; details: 0.45% wt/wt in chow for 6 days; control 100%
Excerpt: as §2

PPARα mRNA = assay: liver mRNA by RT-PCR in rats fed compound in chow: PPARα; format: in vivo, rat; details: 0.45% wt/wt in chow for 6 days; control 100%
Excerpt: as §2

[7] = system: male Wistar rats, DNBS colitis; assay: DNBS induced distal colitis; format: in vivo, rat; details: s.c. once a day for 6 days, 0.2 or 2.0 mg/animal/day; 25-30% decrease considered significant
Description: Treatment of gastrointestinal inflammation. The capacity of formula 1 compounds to limit or inhibit inflammation or symptoms of inflammation was shown using an animal model for inflammatory bowel disease. Groups of 3 male Wistar rats (180±20 grams) fasted for 24 hours before 2,4-dinitrobenzene sulfonic acid (DNBS) or saline challenge were used. Distal colitis was induced by intra-colonic instillation of 0.5 mL of an ethanolic solution of DNBS (30 mg in 0.5 mL of a 30% ethanol in saline solution) after which 2 mL of air was injected through the cannula to ensure that the solution remained in the colon. The volume used was 0.1 mL per injection of 2 and 20 mg/mL of compound such as androst-5-ene-3β,7β,17β-triol in a liquid formulation, which was administered by subcutaneous injection once a day for 6 days (0.2 mg/animal/day or 2.0 mg/animal/day). The formulation contained 100 mg/mL of compound in a non-aqueous suspension, e.g., 2% benzyl alcohol w/v, 0.1% Brij 96 w/v and equal volumes of PEG 300 and propylene glycol. Concentrations of 2 mg/mL and 20 mg/mL were obtained by diluting the […] with vehicle that lacked compound.
The first dose was given 30 minutes after DNBS challenge. […] The presence of diarrhea was recorded daily by examining the anal area. […] Before removal of the colon, signs of adhesion between the colon and other organs are recorded. […]

[8] = system: gerbils, cerebral ischemic stroke; assay: acute cerebral ischemic stroke by bilateral carotid occlusion; format: in vivo, gerbil; details: stroke treated
Excerpt: Treatment of neuron loss associated with trauma and osteoporosis or bone loss conditions. Immune competence is a complex function that can be acutely impaired following trauma-induced elevations in endogenous glucocorticoid (GC) levels. The compound 5-androstene-3β,7β,17β-triol administered parenterally was used to preserve these immune function by exerting a trophic or anabolic activity. […] Thus, the measured food-searching latency period in each group was 6.9±0.9 seconds (sec) for sham, 46.9±13.6 sec for stroke alone and 14.8±4.8 sec for stroke treated with 5-androstene-3β,7β,17β-triol. Concomitantly, the stroke-induced loss in CA1 hippocampal neuron count was markedly abrogated by 5-androstene-3β,7β,17β-triol (sham=362,247±6,839; stroke=152,354±11,575; and stroke+5-androstene-3β,7β,17β-triol=207,854±47,334).

[9] = system: thermally-injured mice (20% total body surface area); assay: bone loss in thermally-injured mice; format: in vivo, mouse
Excerpt: In bone loss conditions, 5-androstene-3β,7β,17β-triol affected the principal bone structures, i.e., cortical and trabecular layers and the growth plate. […] We observed partial protection against loss of bone mineral content as measured by dual X-ray absorptiometry.

[10] = system: rats, trauma and hemorrhage; assay: rat model of hemorrhagic trauma, 40% loss of total blood volume; format: in vivo; details: one s.c. injection 40 mg/kg one hour after initiation of hemorrhage; n=12
Description: The effect of treatment in a rat model of hemorrhagic trauma was examined. Twenty-four rats were subjected to 40% loss of total blood volume, consisting of catheterization and laparotomy (soft tissue injury) to mimic trauma and hemorrhage. One hour after onset of hemorrhage, the animals were resuscitated with crystalloid fluid and packed red blood cells (PRBCs). […] Twelve animals received subcutaneous methyl cellulose control injection at 100 μL/kg body weight.

[11] = system: rats hemorrhaged to mean arterial pressure of about 35-40 mmHg; assay: reduced blood pressure hemorrhagic trauma protocol; format: in vivo, rat; details: one s.c. injection 40 mg/kg; n=7; untreated group 75%
Description: A reduced blood pressure hemorrhagic trauma protocol was also conducted as a second model of hemorrhagic trauma. In this protocol, 15 rats were hemorrhaged described above to a mean arterial pressure of about 35-40 mmHg and resuscitated one hour from onset of the hemorrhage with crystalloid and PRBCs. Seven […] subcutaneous injection of androst-5-ene-3β,7β,17β-triol in a methyl cellulose suspension at a concentration of 40 mg/kg body weight in 100 μL/kg body weight, one hour after initiation of hemorrhage, but before fluid resuscitation. Eight animals received subcutaneous methyl cellulose control injection at 100 μL/kg body weight. Two days after induction of hemorrhage, mortality in the untreated group (n=8) was 75%.

C[C@]12CC[C@H]3[C@@H]([C@@H](O)C=C4C[C@@H](O)CC[C@@]43C)[C@@H]1C[C@@H](O)[C@@H]2O [androst-5-ene-3β,7β,16α,17β-tetrol]
level of IL-6 in BAL compared to vehicle treated animals [1]: reduced levels
level of MPO compared to vehicle treated animals [1]: reduced levels
level of TNFα in BAL compared to vehicle treated animals [1]: reduced levels
augmenting muscle glucose uptake in the gastrocnemius muscle ([2]; ^14C-2-deoxyglucose, p<0.05): more effective
glucose infusion rate compared to the vehicle control ([2]; oral gavage 14 days, insulin 10 mU/kg/min): increased the glucose infusion rate
course of EAE compared to vehicle-treated mice (female SJL mice, EAE): significantly improved course of EAE
osteoprotegerin levels in the presence of 30 nM dexamethasone (MG-63 cells): normal osteoprotegerin levels
interaction with androgen receptor (androgen receptor): do not interact
interaction with estrogen receptor-s or estrogen receptor-s [3]: do not interact
parent remaining human microsomes ([4]; 10 min): 100% (10 min)
parent remaining mouse microsomes [5]: 100% (10 min)
permeability in the CaCo-2 cell line (CaCo-2 cell monolayer): not highly permeable
degree of sulfation and degree of glucuronidation compared to diols [6]: low

C[C@]12CC[C@H]3[C@@H]([C@@H](O)C=C4C[C@@H](O)CC[C@@]43C)[C@@H]1CC[C@@H]2O [androst-5-ene-3β,7β,17β-triol]
11β-HSD1 mRNA (11β-HSD1 mRNA): 45%
PEPCK mRNA (PEPCK mRNA): 30%
PPARα mRNA (PPARα mRNA): 105%
decrease in net colon-to-body weight ratio [7]: 15-20%
food-searching latency period ([8]; sham 6.9±0.9, stroke alone 46.9±13.6): 14.8 ± 4.8 s
CA1 hippocampal neuron count ([8]; sham 362,247±6,839, stroke 152,354±11,575): 207,854±47,334
femur ash weight versus vehicle-treated burned mice [9]: significantly (p<0.01) greater
loss of cortical (femur) and trabecular/cancellous (tibia) bone mass and suppression of chondrocyte proliferation in growth plate [9]: significantly (p<0.01) prevented
survival rate three days after induction of hemorrhage [10]: 100%
mortality rate two days after induction of hemorrhage [11]: 43%
parent remaining human microsomes ([4]; 90 min): 86% (90 min)
parent remaining mouse microsomes [5]: 89% (10 min)
